Assay: Human HepG2 cell viability assay in 384 well format
Type: toxicity, cell-based
Set-up: dose 125 nL, time 70.5 hour; concentration not given beside the values
Details: HepG2 cells, read-out: Inhibition

Row | SMILES | cytotoxicity at 70.5 h [%]
1 | Cc1cccc(CN2C(=O)CO[C@@H]3CN(Cc4nccn4C)C[C@H]32)c1 | -3.81
2 | COc1ccc(Cl)cc1NC(=O)CCNc1ccc(C#N)cn1 | -6.33
3 | COc1ccccc1C(=O)N1CCCC1Cn1cc(C)cn1 (configuration not stated) | -14.4
4 | O=C(c1n[nH]c(=O)c2ccccc12)N1CCCCC1c1ccn[nH]1 (configuration not stated) | -8.63
5 | C1CCN(CCO[C@@H]2CC[C@H]3[C@H]2OCCN3CC2CCOCC2)C1 | -120
6 | O=C(c1nccc2ccccc12)N1CCCCC1Cn1cccn1 (configuration not stated) | -5.86
7 | COCc1cccc(NS(=O)(=O)c2cc(C(=O)O)cs2)c1 | -12.7
8 | Cc1ccc(CNc2ccccc2-n2ccc(C)n2)nc1 | 8.61
9 | NS(=O)(=O)Cc1cccc(C(=O)N2CCCC(n3cccn3)C2)c1 (configuration not stated) | 4.57
10 | O=S(=O)(NCC1CCOC1)N1CCc2ccccc2C1 (configuration not stated) | -0.92
11 | N#CC1(NC(=O)c2nccc3ccccc23)CCSCC1 | -9.79
12 | Cc1nnc(NCc2ccccc2F)c(C#N)c1C | -5.23
13 | CC(C)=CCN1CCN(CCCc2ccccc2)[C@H]2CS(=O)(=O)C[C@H]21 | -6.15
14 | Cc1cc(NC(=O)CCn2cncn2)no1 | 5.52
15 | CC(C)c1noc(CNC2CCCN(Cc3noc(C4CC4)n3)C2)n1 (configuration not stated) | -11.4
16 | CCn1cc(C(=O)N2CCOCC2)cn1 | -3.04
17 | CN1CC(Oc2ccccc2)=NC(SCC(=O)Nc2ccccc2Cl)=N1 | 5.43
18 | Cc1ccn2ncc(C(=O)N3CCCC(n4nc(C)nc4C)C3)c2n1 (configuration not stated) | -5.04
19 | Cc1nc(C)n(CC2CCCCN2CCCN2CCCC2=O)n1 (configuration not stated) | 33.6
20 | CCOc1ccc(S(=O)(=O)NCCCc2ccc(N(C)C)cc2)cc1C | -1.63
21 | Cc1cc(C2CCCN(CCC(=O)N3CCc4ccccc43)C2)n[nH]1 (configuration not stated) | -4.23

Row | SMILES | cytotoxicity at 70.5 h [%]
22 | Cc1ccc(CNC(=O)NCc2csc(C)n2)cn1 | -21.2
23 | CN(C)C(=O)CN1CCC2(CCCN(Cc3cccnc3)C2)C1=O (configuration not stated) | -12
24 | CCn1c(C2CCCNC2)nn(CCn2cncn2)c1=O (configuration not stated) | -8.3
25 | O=C(Cc1ccc2c(c1)OCCO2)N1CCN(c2cnccn2)CC1 | -1.49
26 | c1cncc(-n2cnnc2CC2CCNCC2)c1 | -0.719
27 | Cn1c(CN2CC[C@](C)(O)C(C)(C)C2)cc2ccccc21 | -5.32
28 | O=C(COc1ccccc1F)N1CCCCC1c1ccn2ccnc2n1 (configuration not stated) | -11.7
29 | CCN1CCC(NN2CCN(C)CC2)CC1 | -4.47
30 | N#Cc1ncn(CCS(=O)(=O)c2ccccc2)n1 | -16.8
31 | CC(C)N1CCC(NC(=O)NC2CCOc3ccc(Br)cc32)CC1 (configuration not stated) | 0.813
32 | Cc1nn(CCO)cc1CN1CCCN(C2CCCC2)CC1 | 12.8
33 | COc1ccc(CCC2CCCN(C(=O)CCc3cc(O)no3)C2)cc1 (configuration not stated) | -4.3
34 | Cc1nc(C)n(C2CCCN(C(=O)CCn3ccnn3)C2)n1 (configuration not stated) | 0.306
35 | COc1ccc2c(C)c(C(=O)NCC3CN(S(C)(=O)=O)CCO3)oc2c1 (configuration not stated) | 16.6
36 | CCNC(=O)[C@@H]1C[C@@H](N)CN1Cc1ccc2cccc(Cl)c2n1 | 20.1
37 | CCN(Cc1noc(C)n1)C(=O)C(c1ccc(C)cc1)N(C)C (configuration not stated) | -0.785
38 | O=S(=O)(N1CCCC1)N1CCCCC1CCc1ccccc1 (configuration not stated) | -5.36
39 | CSCc1noc(CNC(=O)C2CCN(C3CCCCC3)CC2)n1 | -21.4
40 | CCc1nnc2n1CCN(C(=O)CCc1ccc3c(c1)OCO3)C2 | -18.7
41 | Cc1cc(NCC2(O)CCOCC2)c2ccccc2n1 | -4.68
42 | COc1ccccc1OCCNC(=O)CN1CCN(C)CC1C (configuration not stated) | -2.58

Row | SMILES | cytotoxicity at 70.5 h [%]
43 | COCCNc1ccc(CC2CCCN(C3CCCC3)C2)nn1 (configuration not stated) | -4.76
44 | CS(=O)(=O)N[C@@H]1CN(C(=O)c2cccnc2)[C@@H]2CCCO[C@@H]21 | -5.12
45 | COc1ccc(C(CO)NC(=O)Nc2cccc(C#N)c2)cc1 (configuration not stated) | -8.65
46 | CC1CN(C)CCN1C(=O)c1ccn(-c2ccccc2)n1 (configuration not stated) | 17.4
47 | Cc1csc(N2CCCN(C(=O)c3cnns3)CC2)n1 | 31.6
48 | c1ccc(-n2ccc(CN3CCCCC3Cn3cncn3)n2)cc1 (configuration not stated) | -12.9
49 | CN(CCc1ccccn1)C(=O)CCC1CCCN(c2ccncc2)C1 (configuration not stated) | 0
50 | CN1C(=O)[C@H]2CC[C@@H]1CN(S(=O)(=O)c1ccc(Cl)cc1Cl)C2 | -10.4
51 | Cc1cc(CC2COc3ccccc3C2)cnc1N (configuration not stated) | -13.2
52 | CCN(CC)c1nc2ccsc2c(=O)n1CCC(=O)NCc1ccco1 | 12.3
53 | O=C(Nc1cc(F)ccc1OCC1CCCO1)N1CCSCC1 (configuration not stated) | 0.0557
54 | Cc1nn(C)c(C)c1C1CCCN1CCOc1cccc(C#N)c1 (configuration not stated) | -3.95
55 | COc1ccc(N(C)C(=O)c2ccc(Cl)c(S(C)(=O)=O)c2)cn1 | -2.77
56 | CC(C)N(Cc1ccc(C#N)cc1)C(=O)Nc1ccccn1 | -7.3
57 | Cc1cnn(CC2CCCN2Cc2nnc(C3CC3)n2C)c1 (configuration not stated) | -8.67
58 | CCc1noc(CC)c1CC(=O)N1CCC(C(=O)NC(C)C)CC1 | -3.58
59 | CC(NC(=O)NCC1(N2CCCCC2)CCCCC1)c1nncn1C (configuration not stated) | -20.6
60 | Cc1nnc(SCC(=O)NCC(c2ccccc2Cl)N(C)C)s1 (configuration not stated) | -7.07
61 | CCc1nc(C2CCCN(C(=O)c3cn(C)nc3C)C2)no1 (configuration not stated) | 36.3
62 | O=C1CCCc2occ(C(=O)N3CCCC(O)(CO)C3)c21 (configuration not stated) | 31
63 | COc1ccc(Cn2cc(C(=O)N(C)CCN(C)C)nn2)cc1 | -15

Row | SMILES | cytotoxicity at 70.5 h [%]
64 | CC(=O)N1CC(=O)N(c2ccccc2)CC12CCN(Cc1ccoc1)C2 (configuration not stated) | -14.4
65 | O=C(O)[C@@H]1CN(C2CCCC2)C[C@H]1C1CC1 | -8.02
66 | Cn1cc(CN2Cc3c(cnn3C)C(COCC3CC3)C2)cn1 (configuration not stated) | 26
67 | Cn1cc(CNc2cnn(CCO)c2)c(-c2ccncc2)n1 | -5.07
68 | CC(=O)N1CCN(C(=O)CNc2ccc3ncsc3c2)CC1 | -5.1
69 | CC(=O)N1CCC2(CC1)CC(N1CCOCC1)c1ccc(C)cc12 (configuration not stated) | -8.04
70 | Cc1ccc(CC(=O)N2CC[C@@H]3NC(=O)CC[C@@H]32)cc1 | 4.9
71 | CN(CCCc1cnn(C)c1)C(=O)Nc1cccc(C#N)c1 | -6.3
72 | CC(=O)c1c(F)cccc1N1CCC(CS(N)(=O)=O)CC1 | -10.5
73 | Cc1cnn(CC(C)Nc2cnc3ccccc3n2)c1 (configuration not stated) | 4.57
74 | Cc1n[nH]c(C2CN(Cc3csc(C4CC4)n3)CCO2)n1 (configuration not stated) | -7.97
75 | CC1CN(CC(=O)NCc2ccc(F)cc2)CCN1c1nccs1 (configuration not stated) | 0.122
76 | Cc1ncccc1NC(=O)c1nc2c(n1C)CCN(C(=O)C1CC1)C2 | -8.28
77 | CC(C)OC(=O)N1CCCC2(CCC(=O)N(CCc3c[nH]cn3)C2)C1 (configuration not stated) | -1.99
78 | CCN1CC2(CCC1=O)CCN(C(=O)c1cn3cccnc3n1)CC2 | 34.9
79 | O=C(NC[C@H]1OC[C@@H](NC2CCCCC2)[C@@H]1O)c1cccs1 | -5.2
80 | Cc1nnsc1CNC(=O)Nc1cccc(N2CCN(C)C2=O)c1 | 5.12
81 | CC(C)C(C)NC(=O)Nc1ccc(F)c(C(N)=O)c1 (configuration not stated) | -3.91
82 | CC1CCN(C(=O)[C@H]2CC[C@@H]3[C@@H](CCN3Cc3nccs3)O2)CC1 | 25.3

Source: ChEMBL document CHEMBL3507680, “University of Dundee, Gates Library screen for HepG2 cell viability”
